# pIC50: −log10 of the molar value.
# What was measured:
# K562 [1] = assay: Potency index, ratio of oridonin IC50 to compound IC50 for antiproliferative activity against human K562 cells after 72 hrs by MTT assay; assay type: functional
# K562 [2] = assay: Induction of apoptosis in human K562 cells assessed as early apoptotic cells at 100 nM incubated for 48 hrs by Annexin-V and PI staining based flow cytometry analysis (reference value: 1.98%); assay type: functional
# K562 [3] = assay: Induction of cell cycle arrest in human K562 cells assessed as accumulation of cells at G2 phase at 400 nM incubated for 48 hrs by PI staining based flow cytometry analysis (reference value: 12.31%); assay type: functional
# Cell membrane [4] = assay: Induction of mitochondrial membrane depolarization in human K562 cells incubated for 48 hrs by JC-1 staining based flow cytometry analysis; conditions: Mitochondria, dose […]
# Cell membrane [5] = assay: Induction of mitochondrial membrane depolarization in human K562 cells assessed as lower right phase cells at […] incubated for 48 hrs by JC-1 staining based flow cytometry analysis; conditions: Mitochondria
# [6] = Selectivity index, ratio of IC50 for human L02 cells to IC50 for human SMMC-7721 cells; assay type: toxicity; conditions: L02 cells versus SMMC-7721 cells, read-out: Ratio IC50
# K562 [7] = assay: Induction of apoptosis in human K562 cells assessed as late apoptotic cells at 200 nM incubated for 48 hrs by Annexin-V and PI staining based flow cytometry analysis (reference value: 2.42%); assay type: functional
# K562 [8] = assay: Induction of ROS generation in human K562 cells incubated for 48 hrs by DCFH-DA staining based flow cytometry analysis; assay type: functional, cell-based; conditions: dose […]
# SW480 = assay: Antiproliferative activity against human SW480 cells assessed as reduction in cell growth after 72 hrs by MTT assay; assay type: functional, cell-based; conditions: SW480, 72 h
# K562 [9] = assay: Induction of apoptosis in human K562 cells assessed as early apoptotic cells at 200 nM incubated for 48 hrs by Annexin-V and PI staining based flow cytometry analysis (reference value: 1.98%); assay type: functional
# K562 [10] = assay: Induction of cell cycle arrest in human K562 cells assessed as accumulation of cells at G1 phase at 200 nM incubated for 48 hrs by PI staining based flow cytometry analysis (reference value: 68.84%); assay type: functional
# K562 [11] = assay: Induction of apoptosis in human K562 cells assessed as necrotic cells at 200 nM incubated for 48 hrs by Annexin-V and PI staining based flow cytometry analysis (reference value: 1.72%); assay type: functional
# K562 [12] = assay: Induction of cell cycle arrest in human K562 cells assessed as accumulation of cells at G2 phase at 200 nM incubated for 48 hrs by PI staining based flow cytometry analysis (reference value: 12.31%); assay type: functional
# K562 [13] = assay: Induction of apoptosis in human K562 cells assessed as early apoptotic cells at 400 nM incubated for 48 hrs by Annexin-V and PI staining based flow cytometry analysis (reference value: 1.98%); assay type: functional
# K562 [14] = assay: Induction of ROS generation in human K562 cells at 400 nM incubated for 48 hrs by DCFH-DA staining based flow cytometry analysis (reference value: 4.82%); assay type: functional
# K562 [15] = assay: Induction of cell cycle arrest in human K562 cells assessed as accumulation of cells at S phase at 400 nM incubated for 48 hrs by PI staining based flow cytometry analysis (reference value: 18.85%); assay type: functional
# K562 [16] = assay: Antiproliferative activity against human K562 cells assessed as reduction in cell growth after 72 hrs by MTT assay; assay type: functional, cell-based; conditions: K562, 72 h
# K562 [17] = assay: Induction of cell cycle arrest in human K562 cells assessed as accumulation of cells at S phase at 100 nM incubated for 48 hrs by PI staining based flow cytometry analysis (reference value: 18.85%); assay type: functional
# K562 [18] = assay: Induction of cell cycle arrest in human K562 cells assessed as accumulation of cells at G2 phase at 100 nM incubated for 48 hrs by PI staining based flow cytometry analysis (reference value: 12.31%); assay type: functional
# SMMC-7721 = assay: Antiproliferative activity against human SMMC-7721 cells assessed as reduction in cell growth after 72 hrs by MTT assay; assay type: functional, cell-based; conditions: SMMC-7721, 72 h
# K562 [19] = assay: Induction of apoptosis in human K562 cells assessed as necrotic cells at 400 nM incubated for 48 hrs by Annexin-V and PI staining based flow cytometry analysis (reference value: 1.72%); assay type: functional
# K562 [20] = assay: Induction of cell cycle arrest in human K562 cells assessed as accumulation of cells at G1 phase at 400 nM incubated for 48 hrs by PI staining based flow cytometry analysis (reference value: 68.84%); assay type: functional
# K562 [21] = assay: Induction of cell cycle arrest in human K562 cells assessed as downregulation of cyclin-B1 expression incubated for 48 hrs by Western blot analysis; assay type: functional, cell-based; conditions: dose 100-400 nM
# [22] = Cytotoxicity against human L02 cells incubated for 72 hrs by MTT assay; assay type: toxicity, cell-based
# K562 [23] = assay: Induction of cell cycle arrest in human K562 cells assessed as downregulation of cdc-2 expression incubated for 48 hrs by Western blot analysis; assay type: functional, cell-based; conditions: dose 100-400 nM
# K562 [24] = assay: Induction of apoptosis in human K562 cells assessed as necrotic cells at 100 nM incubated for 48 hrs by Annexin-V and PI staining based flow cytometry analysis (reference value: 1.72%); assay type: functional
# MDA-MB-231 = assay: Antiproliferative activity against human MDA-MB-231 cells assessed as reduction in cell growth after 72 hrs by MTT assay; assay type: functional, cell-based; conditions: MDA-MB-231, 72 h
# K562 [25] = assay: Induction of cell cycle arrest in human K562 cells assessed as accumulation of cells at G1 phase at 100 nM incubated for 48 hrs by PI staining based flow cytometry analysis (reference value: 68.84%); assay type: functional
# K562 [26] = assay: Induction of apoptosis in human K562 cells assessed as viable cells at 200 nM incubated for 48 hrs by Annexin-V and PI staining based flow cytometry analysis (reference value: 93.87%); assay type: functional; conditions: read-out: Activity
# K562 [27] = assay: Induction of apoptosis in human K562 cells assessed as late apoptotic cells at 100 nM incubated for 48 hrs by Annexin-V and PI staining based flow cytometry analysis (reference value: 2.42%); assay type: functional
# K562 [28] = assay: Induction of cell cycle arrest in human K562 cells assessed as downregulation of cdc-25c expression incubated for 48 hrs by Western blot analysis; assay type: functional, cell-based; conditions: dose 100-400 nM
# K562 [29] = assay: Induction of apoptosis in human K562 cells assessed as viable cells at 400 nM incubated for 48 hrs by Annexin-V and PI staining based flow cytometry analysis (reference value: 93.87%); assay type: functional; conditions: read-out: Activity
# K562 [30] = assay: Induction of apoptosis in human K562 cells assessed as late apoptotic cells at 400 nM incubated for 48 hrs by Annexin-V and PI staining based flow cytometry analysis (reference value: 2.42%); assay type: functional
# K562 [31] = assay: Induction of cell cycle arrest in human K562 cells assessed as accumulation of cells at S phase at 200 nM incubated for 48 hrs by PI staining based flow cytometry analysis (reference value: 18.85%); assay type: functional
# K562 [32] = assay: Induction of apoptosis in human K562 cells assessed as viable cells at 100 nM incubated for 48 hrs by Annexin-V and PI staining based flow cytometry analysis (reference value: 93.87%); assay type: functional; conditions: read-out: Activity
smiles,measurement,setting,value
C=C1C(=O)[C@@]23C(=O)OC[C@]4(C=CCC(C)(C)[C@H]4C=O)[C@@H]2CC[C@@H]1[C@H]3OC(=O)/C=C/c1cccnc1,Ratio IC50,K562 [1],10
same,Activity,K562 [2],5.01%
same,Activity,K562 [3],20.53%
same,Activity,Cell membrane [4],Dose-Dependent Effect
same,Activity,Cell membrane [5],28.4%
same,selectivity ratio,[6],7.64
same,Activity,K562 [7],7.23%
same,Activity,K562 [8],Dose-Dependent Effect
same,pIC50,SW480,6.32
same,Activity,K562 [9],7.6%
same,Activity,K562 [10],61.3%
same,Activity,K562 [11],4.23%
same,Activity,K562 [12],13.9%
same,Activity,K562 [13],9.41%
same,Activity,K562 [14],27.83%
same,Activity,K562 [15],24.28%
same,pIC50,K562 [16],6.40
same,Activity,K562 [17],20.6%
same,Activity,K562 [18],15.07%
same,pIC50,SMMC-7721,6.25
same,Activity,K562 [19],6.37%
same,Activity,K562 [20],55.2%
same,Activity,K562 [21],Dose-Dependent Effect
same,IC50 at 72 h,[22],4280 nM
same,Activity,K562 [23],Dose-Dependent Effect
same,Activity,K562 [24],3.37%
same,pIC50,MDA-MB-231,6.01
same,Activity,K562 [25],64.33%
same,viability at 0.2 µM,K562 [26],80.9%
same,Activity,K562 [27],5.59%
same,Activity,K562 [28],Dose-Dependent Effect
same,viability at 0.4 µM,K562 [29],68.7%
same,Activity,K562 [30],15.5%
same,Activity,K562 [31],24.8%
same,viability at 0.1 µM,K562 [32],86%

# Source: ChEMBL document CHEMBL5325391, “Spirolactone-type and enmein-type derivatives as potential anti-cancer agents derived from oridonin” (Bioorg Med Chem, 2022)
